SMILES: COCC(C)Nc1cc(-c2ccnc(Nc3cccc(Cl)c3)c2)ccn1 (stereo not shown) [Compound A1.10, N*2′*-(3-Chloro-phenyl)-N*2*-(2-methoxy-1-methyl-ethyl)-[4,4′]bipyridinyl-2,2′-diamine]
- melting point: 110 °C
